Test results as given in ChEMBL document CHEMBL1221248, “Synthesis and SAR of (piperazin-1-yl-phenyl)-arylsulfonamides: a novel series of atypical antipsychotic agents” (Bioorg Med Chem Lett, 2010).

Key:
[1] = target: T1, 5-hydroxytryptamine receptor 2C (Homo sapiens, UniProt P28335); test: Displacement of [3H]mesulergine from human 5HT2C expressed in CHOKI cells; format: cell-based
T1 sequence (P28335 whole entry): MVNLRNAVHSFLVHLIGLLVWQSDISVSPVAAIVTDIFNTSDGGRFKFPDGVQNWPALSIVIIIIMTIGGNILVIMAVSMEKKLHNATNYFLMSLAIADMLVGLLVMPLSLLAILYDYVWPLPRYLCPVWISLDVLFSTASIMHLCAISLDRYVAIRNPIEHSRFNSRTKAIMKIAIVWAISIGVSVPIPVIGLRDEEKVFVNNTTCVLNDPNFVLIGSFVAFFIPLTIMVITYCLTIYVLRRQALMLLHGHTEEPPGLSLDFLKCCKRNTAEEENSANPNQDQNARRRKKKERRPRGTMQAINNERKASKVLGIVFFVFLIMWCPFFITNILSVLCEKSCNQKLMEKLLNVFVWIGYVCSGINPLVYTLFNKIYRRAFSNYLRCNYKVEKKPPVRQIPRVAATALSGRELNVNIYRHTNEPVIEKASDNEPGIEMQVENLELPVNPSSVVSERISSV

[2] = target: 5-hydroxytryptamine receptor 2A (Homo sapiens, UniProt P28223); test: Displacement of [3H]ketanserin from human 5HT2A expressed in CHOKI cells; format: cell-based
[3] = target: T2, 5-hydroxytryptamine receptor 1A (Homo sapiens, UniProt P08908); test: Displacement of [3H]8-OH-DPAT from human 5HT1A expressed in CHOKI cells; format: cell-based
T2 sequence (P08908 whole entry): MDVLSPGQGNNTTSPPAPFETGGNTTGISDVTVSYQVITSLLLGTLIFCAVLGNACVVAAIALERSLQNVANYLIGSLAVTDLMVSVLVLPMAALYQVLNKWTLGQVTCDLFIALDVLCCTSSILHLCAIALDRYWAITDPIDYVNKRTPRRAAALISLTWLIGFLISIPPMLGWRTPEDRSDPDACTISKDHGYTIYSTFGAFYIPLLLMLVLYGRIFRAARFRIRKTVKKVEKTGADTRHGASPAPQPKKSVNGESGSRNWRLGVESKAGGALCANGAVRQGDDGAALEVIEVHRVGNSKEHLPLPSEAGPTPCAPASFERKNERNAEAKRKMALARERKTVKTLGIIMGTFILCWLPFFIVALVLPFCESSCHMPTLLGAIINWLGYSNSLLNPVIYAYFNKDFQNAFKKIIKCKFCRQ

[4] = target: T3, D(4) dopamine receptor (Homo sapiens, UniProt P21917); test: Displacement of [3H]spiperone from human dopamine D4 receptor expressed in CHOKI cells; format: cell-based
T3 sequence (P21917 whole entry): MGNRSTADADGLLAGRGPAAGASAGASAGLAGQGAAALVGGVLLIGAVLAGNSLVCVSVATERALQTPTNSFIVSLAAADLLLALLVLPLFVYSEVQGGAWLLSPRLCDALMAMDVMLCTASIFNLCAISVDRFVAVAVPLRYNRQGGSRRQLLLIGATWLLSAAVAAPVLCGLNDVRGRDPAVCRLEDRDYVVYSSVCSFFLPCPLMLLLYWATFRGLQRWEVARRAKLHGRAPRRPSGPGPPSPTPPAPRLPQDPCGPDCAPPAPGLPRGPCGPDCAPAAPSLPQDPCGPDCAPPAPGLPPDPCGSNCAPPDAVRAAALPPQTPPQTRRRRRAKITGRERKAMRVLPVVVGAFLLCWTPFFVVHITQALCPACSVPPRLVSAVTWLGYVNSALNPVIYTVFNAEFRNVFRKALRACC

[5] = target: 5-hydroxytryptamine receptor 6 (Homo sapiens, UniProt P50406); test: Displacement of [3H]LSD from human 5HT6 receptor expressed in HEK293 cells; format: cell-based
[6] = target: D(2) dopamine receptor (Homo sapiens, UniProt P14416); test: Displacement of [3H]spiperone from human dopamine D2 expressed in CHOKI cells; format: cell-based
[7] = target: 5-hydroxytryptamine receptor 7 (Homo sapiens, UniProt P34969); test: Displacement of [3H]LSD from human 5HT7 expressed in CHOKI cells; format: cell-based
[8] = target: D(3) dopamine receptor (Homo sapiens, UniProt P35462); test: Displacement of [3H]spiperone from human dopamine D3 receptor expressed in CHOKI cells; format: cell-based
[9] = organism: Homo sapiens; test: Selectivity ratio of IC50 for human dopamine D4 to IC50 for human 5HT2C
[10] = organism: Homo sapiens; test: Selectivity ratio of IC50 for human dopamine D3 to IC50 for human 5HT6 receptor
[11] = organism: Homo sapiens; test: Selectivity ratio of IC50 for human 5HT1A to IC50 for human 5HT2C
[12] = organism: Homo sapiens; test: Selectivity ratio of IC50 for human dopamine D3 to IC50 for human 5HT2C
[13] = organism: Homo sapiens; test: Selectivity ratio of IC50 for human 5HT7 to IC50 for human 5HT2C
[14] = organism: Homo sapiens; test: Selectivity ratio of IC50 for human 5HT7 to IC50 for human 5HT6 receptor
[15] = organism: Homo sapiens; test: Selectivity ratio of IC50 for human dopamine D2 to IC50 for human 5HT6 receptor
[16] = target: Serotonin 2 receptors; 5-HT2a & 5-HT2c (Homo sapiens) (UniProt P28223+P28335); test: Selectivity ratio of IC50 for human 5HT2A to IC50 for human 5HT2C
[17] = organism: Homo sapiens; test: Selectivity ratio of IC50 for human 5HT2A to IC50 for human 5HT6 receptor
[18] = organism: Homo sapiens; test: Selectivity ratio of IC50 for human dopamine D2 to IC50 for human 5HT2C
[19] = organism: Homo sapiens; test: Selectivity ratio of IC50 for human dopamine D4 to IC50 for human 5HT6 receptor
[20] = organism: Homo sapiens; test: Selectivity ratio of IC50 for human 5HT1A to IC50 for human 5HT6 receptor

Sequence of 5-hydroxytryptamine receptor 6 (P50406 whole entry): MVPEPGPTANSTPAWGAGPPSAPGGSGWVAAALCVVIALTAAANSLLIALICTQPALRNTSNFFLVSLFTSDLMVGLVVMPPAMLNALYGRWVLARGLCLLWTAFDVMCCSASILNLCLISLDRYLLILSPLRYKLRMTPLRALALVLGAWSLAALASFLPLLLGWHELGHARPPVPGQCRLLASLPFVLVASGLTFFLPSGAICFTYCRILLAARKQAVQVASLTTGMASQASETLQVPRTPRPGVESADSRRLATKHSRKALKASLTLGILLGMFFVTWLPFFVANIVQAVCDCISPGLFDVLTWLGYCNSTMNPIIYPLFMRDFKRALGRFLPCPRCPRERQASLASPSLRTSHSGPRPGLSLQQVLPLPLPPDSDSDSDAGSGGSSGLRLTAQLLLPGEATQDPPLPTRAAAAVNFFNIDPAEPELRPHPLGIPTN
Sequence of D(2) dopamine receptor (P14416 whole entry): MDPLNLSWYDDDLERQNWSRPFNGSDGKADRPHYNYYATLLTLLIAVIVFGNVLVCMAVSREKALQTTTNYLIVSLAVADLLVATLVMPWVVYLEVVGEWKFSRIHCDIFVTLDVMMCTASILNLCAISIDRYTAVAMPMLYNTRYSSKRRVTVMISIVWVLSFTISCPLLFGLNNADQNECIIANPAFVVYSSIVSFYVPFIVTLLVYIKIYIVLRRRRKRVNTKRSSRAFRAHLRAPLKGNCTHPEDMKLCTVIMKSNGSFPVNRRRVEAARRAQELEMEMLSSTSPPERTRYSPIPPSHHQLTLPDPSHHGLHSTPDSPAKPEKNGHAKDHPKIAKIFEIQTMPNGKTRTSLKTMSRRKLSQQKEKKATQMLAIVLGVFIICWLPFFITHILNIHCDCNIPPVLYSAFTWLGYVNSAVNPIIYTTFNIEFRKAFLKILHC
Sequence of D(3) dopamine receptor (P35462 whole entry): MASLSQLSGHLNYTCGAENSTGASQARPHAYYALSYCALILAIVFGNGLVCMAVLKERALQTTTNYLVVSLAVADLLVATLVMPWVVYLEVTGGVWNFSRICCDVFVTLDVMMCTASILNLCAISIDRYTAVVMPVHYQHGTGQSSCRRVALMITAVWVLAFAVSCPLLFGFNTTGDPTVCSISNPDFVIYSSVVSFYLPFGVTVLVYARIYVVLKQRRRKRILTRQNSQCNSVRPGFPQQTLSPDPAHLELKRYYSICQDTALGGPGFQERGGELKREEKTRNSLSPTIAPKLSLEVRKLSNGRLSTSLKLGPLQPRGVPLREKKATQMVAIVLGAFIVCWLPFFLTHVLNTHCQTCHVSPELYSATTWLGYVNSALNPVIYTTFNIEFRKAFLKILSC
Sequence of 5-hydroxytryptamine receptor 7 (P34969 whole entry): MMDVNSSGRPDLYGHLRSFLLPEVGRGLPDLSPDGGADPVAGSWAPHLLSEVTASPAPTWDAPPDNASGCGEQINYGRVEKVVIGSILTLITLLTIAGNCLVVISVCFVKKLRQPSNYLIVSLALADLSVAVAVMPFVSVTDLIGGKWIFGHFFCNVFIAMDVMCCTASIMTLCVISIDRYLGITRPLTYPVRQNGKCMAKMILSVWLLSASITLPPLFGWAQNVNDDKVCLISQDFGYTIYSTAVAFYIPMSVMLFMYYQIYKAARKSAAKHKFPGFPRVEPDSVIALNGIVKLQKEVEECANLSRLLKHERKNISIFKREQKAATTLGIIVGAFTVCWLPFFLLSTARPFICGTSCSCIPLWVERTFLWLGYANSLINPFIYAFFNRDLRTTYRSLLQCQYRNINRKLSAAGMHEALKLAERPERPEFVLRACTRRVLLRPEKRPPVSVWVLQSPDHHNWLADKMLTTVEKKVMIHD
Sequence of 5-hydroxytryptamine receptor 2A (P28223 whole entry): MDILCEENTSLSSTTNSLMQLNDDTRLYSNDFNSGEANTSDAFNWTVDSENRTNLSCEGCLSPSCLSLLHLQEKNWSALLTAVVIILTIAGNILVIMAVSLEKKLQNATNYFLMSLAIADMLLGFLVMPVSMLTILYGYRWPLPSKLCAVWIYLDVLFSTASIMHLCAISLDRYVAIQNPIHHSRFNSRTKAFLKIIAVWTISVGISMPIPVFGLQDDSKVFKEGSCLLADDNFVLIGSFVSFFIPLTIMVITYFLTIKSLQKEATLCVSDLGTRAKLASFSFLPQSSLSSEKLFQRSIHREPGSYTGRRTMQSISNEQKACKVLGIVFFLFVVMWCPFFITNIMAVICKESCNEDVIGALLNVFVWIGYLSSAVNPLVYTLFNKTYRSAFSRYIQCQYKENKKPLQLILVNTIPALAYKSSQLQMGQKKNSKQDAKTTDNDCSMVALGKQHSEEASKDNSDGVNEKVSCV
Sequence of Serotonin 2 receptors; 5-HT2a & 5-HT2c (Homo sapiens) (P28223 whole entry, looked up, one chain of several): as the sequence (P28223 whole entry) above

Structure (SMILES) | IC50 [1] [nM] | IC50 [2] [nM] | IC50 [3] [nM] | IC50 [4] [nM] | IC50 [5] [nM] | IC50 [6] [nM] | IC50 [7] [nM] | IC50 [8] [nM] | other results
CC(C)N(C(=O)c1cccc2ccccc12)c1cccc(N2CCN(C)CC2)c1 | 97 |  |  |  |  |  |  |  | 
CN1CCN(c2cccc(N(CC3CCCC3)S(=O)(=O)c3ccc4ccccc4c3)c2)CC1 | 11 |  |  |  |  |  |  |  | 
CC(C)N(c1cccc(N2CCN(C)CC2)c1)S(=O)(=O)c1ccc(Cl)cc1 | 243 |  |  |  |  |  |  |  | 
CN1CCN(c2cccc(N(C)S(=O)(=O)c3ccc4ccccc4c3)c2)CC1 | 36 | 1420 | 95 | > 10000 | 7 | > 10000 | 4430 | 2420 | 
CC(C)N(c1cccc(I)c1)S(=O)(=O)c1ccc2ccccc2c1 | 467 |  |  |  | 1180 |  |  |  | 
CCCN(c1cccc(N2CCN(C)CC2)c1)S(=O)(=O)c1ccc2ccccc2c1 | 7 | 389 | 3760 | > 10000 | 4 | > 10000 | 3860 | 2510 | Ratio IC50 [9]: > 25; Ratio IC50 [10]: > 25; Ratio IC50 [11]: > 25; Ratio IC50 [12]: > 25; Ratio IC50 [13]: > 25; Ratio IC50 [14]: > 25; Ratio IC50 [15]: > 25; Ratio IC50 [16]: > 25; Ratio IC50 [17]: > 25; Ratio IC50 [18]: > 25; Ratio IC50 [19]: > 25; Ratio IC50 [20]: > 25
CC(C)N(c1ccc(N2CCN(C)CC2)cc1)S(=O)(=O)c1ccc2ccccc2c1 | 1720 |  |  |  | 27 |  |  |  | 
CN1CCN(c2cccc(N(Cc3cccnc3)S(=O)(=O)c3ccc4ccccc4c3)c2)CC1 | 34 |  |  |  |  |  |  |  | 
CN1CCN(c2cccc(NS(=O)(=O)c3ccc4ccccc4c3)c2)CC1 | 5150 | 1620 | 57 | > 10000 | 13 | > 10000 | 1580 | 2100 | 
CC(C)N(C(=O)Nc1ccccc1)c1cccc(N2CCN(C)CC2)c1 | > 10000 |  |  |  |  |  |  |  | 
CN1CCN(c2cccc(N(Cc3ccccc3)S(=O)(=O)c3ccc4ccccc4c3)c2)CC1 | 32 | 50 | 280 | > 10000 | 3 | > 10000 | 2040 | 943 | 
CC(C)N(C(=O)c1ccc2ccccc2c1)c1cccc(N2CCN(C)CC2)c1 | 420 |  |  |  |  |  |  |  | 
CC(C)N(c1cccc(N2CCN(C)CC2)c1)S(=O)(=O)c1ccc([N+](=O)[O-])cc1 | 462 |  |  |  |  |  |  |  | 
